The record followed here is US8552002B2 (Novartis AG, priority 2004, dated 2013).

Type in all cases: biochemical
The target in one test is T1, FGFR3 (K650E) (Homo sapiens, UniProt P22607, K650E).
T1 construct: amino acids 411-806 of the cytoplasmic domain of human FGFR-3, N-terminally fused to GST; made in house; host or cells: Sf9 insect cells (baculovirus)
Briefly: Recombinant GST-FGFR-3-K650E tyrosine kinase assay (33P into poly(Glu,Tyr)). To be noted: 10 μM; Examples 1 to 169; read-out: FGFR3 (K650E) inhibition at 10 μM.

A further test concerns the target T2, KDR (Homo sapiens, UniProt P35968).
T2 construct: expressed in transfected cells; host or cells: CHO cells
Briefly: Inhibitory activity against KDR (VEGF-R2), in vitro data of Examples 170 and 207. The conditions noted are these: 10 μM; Examples 1 to 169; read-out: KDR inhibition at 10 μM. On the procedure: (Controls comprise medium without test compounds). After two hours of incubation at 37° C., recombinant VEGF is added; the final VEGF concentration is 20 ng/ml. After a further five minutes incubation at 37° C., the cells are washed twice with ice-cold PBS (phosphate-buffered saline) and immediately lysed in 100 μl lysis buffer per well. The lysates are then centrifuged to remove the cell nuclei, and the protein concentrations of the supernatants are determined using a commercial protein assay (BIORAD). The lysates can then either be immediately used or, if necessary, stored at −20° C. […] The plates are then washed and the remaining free protein-binding sites are saturated with 3% TopBlock® (Juro, Cat. # TB232010) in phosphate buffered saline with Tween 20® (polyoxyethylen(20)sorbitane monolaurate, ICI/Uniquema) (PBST). The cell lysates (20 μg protein per well) are then incubated in these plates overnight at 4° C. together with an antiphosphotyrosine antibody coupled with alkaline phosphatase (PY20:AP from Zymed). […] The luminescence is measured in a Packard Top Count Microplate Scintillation Counter.

Another test deals with T3, Tek (Homo sapiens, UniProt Q02763).
T3 construct: amino acids 773-1124 of the cytoplasmic kinase domain of human Tek, N-terminally fused to GST; made in house; host or cells: Sf9 insect cells (baculovirus)
T3 sequence (Q02763 773-1124): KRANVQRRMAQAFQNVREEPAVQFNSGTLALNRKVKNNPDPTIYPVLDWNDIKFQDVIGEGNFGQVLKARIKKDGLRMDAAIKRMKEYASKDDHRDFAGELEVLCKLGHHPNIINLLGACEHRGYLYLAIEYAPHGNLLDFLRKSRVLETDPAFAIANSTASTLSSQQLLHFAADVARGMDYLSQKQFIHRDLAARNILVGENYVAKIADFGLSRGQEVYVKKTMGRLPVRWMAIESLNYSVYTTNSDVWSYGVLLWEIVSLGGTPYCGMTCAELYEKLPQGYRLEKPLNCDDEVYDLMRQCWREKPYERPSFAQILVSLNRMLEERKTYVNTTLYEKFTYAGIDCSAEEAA
The test is described as follows: Recombinant GST-Tek (Tie-2) tyrosine kinase assay (33P into poly(Glu,Tyr)). To be noted: Examples 1 to 169. From the text: (Tie-2/Tek): The baculovirus donor vector pFbacG01 was used to generate a recombinant baculovirus that expressed the amino acid region amino acids 773-1124 of the cytoplasmic kinase domain of human Tek, N-terminally fused to GST (Provided by Dr. Marmé, Institute of Molecular Medicine, Freiburg, Germany based on a Research Collaboration). Tek was recloned into the pFbacG01 transfer vector by EcoRI excision and ligation into EcoRI digested pFbacG01 (FBG-Tie2/Tek).
Production of virus: Transfer vectors containing the kinase domains were transfected into the DH10Bac cell line (GIBCO) and plated on selective agar plates. Colonies without insertion of the fusion sequence into the viral genome (carried by the bacteria) are blue. Single white colonies were picked and viral DNA (bacmid) isolated from the bacteria by standard plasmid purification procedures. Sf9 cells or Sf21 cells were then transfected in 25 cm^2 flasks with the viral DNA using Cellfectin reagent.
Determination of small scale protein expression in Sf9 cells: Virus containing media was collected from the transfected cell culture and used for infection to increase its titer. Virus containing media obtained after two rounds of infection was used for large-scale protein expression. For large-scale protein expression 100 cm^2 round tissue culture plates were seeded with 5×10^7 cells/plate and infected with 1 mL of virus-containing media (approx. 5 MOIs). After 3 days the cells were scraped off the plate and centrifuged at 500 rpm for 5 min. Cell pellets from 10-20, 100 cm^2 plates, were resuspended in 50 mL of ice-cold lysis buffer (25 mMTris-HCl, pH7.5, 2 mMEDTA, 1% NP-40, 1 mM DTT, 1 mMP MSF). The cells were stirred on ice for 15 min and then centrifuged at 5000 rpms for 20 min.
Purification of GST-tagged proteins: The centrifuged cell lysate was loaded onto a 2 mL glutathione-sepharose column and washed three times with 10 mL of 25 mM Tris-HCl, pH 7.5, 2 mM EDTA, 1 mM DTT, 200 mM NaCl. The GST-tagged proteins were then eluted by 10 applications (1 mL each) of 25 mM Tris-HCl, pH 7.5, 10 mM reduced-glutathione, 100 mM NaCl, 1 mM DTT, 10% Glycerol and stored at −70° C.
Measure of enzyme activity: Tyrosine protein kinase assays with either purified GST-Ret, GST-Tek or GST-FGFR-3-K650E were carried out in a final volume of 30 μL with final concentrations of the following components: Ret included 15 ng of GST-Ret, 20 mM Tris-HCl, pH 7.5, 1 mM MnCl2, 10 mM MgCl2, 1 mM DTT, 3 μg/mL poly(Glu,Tyr) 4:1, 1% DMSO and 2.0 μM ATP (γ-[^33P]-ATP 0.1 μCi). Tek included 150 ng of GST-Tek, 20 mM Tris-HCl, pH 7.5, 3 mM MnCl2, 3 mM MgCl2, 1 mM DTT, 0.01 mM Na3VO4, 250 μg/mL PEG 20'000, 10 μg/mL poly(Glu,Tyr) 4:1, 1% DMSO and 4.0 μM ATP (γ-[^33P]-ATP 0.1 μCi). FGFR-3-K650E included 10 ng of GST-FGFR-3-K650E, 20 mM Tris-HCl, pH 7.5, 3 mM MnCl2, 3 mM MgCl2, 1 mM DTT, […], 10 μg/mL poly(Glu,Tyr) 4:1, 1% DMSO and 4.0 μM ATP (γ-[^33P]-ATP 0.1 μCi).The activity was assayed in the presence or absence of inhibitors, by measuring the incorporation of ^33P from [γ^33P] ATP into poly(Glu,Tyr) 4:1. The assay was carried out in 96-well plates at ambient temperature for 30 min under conditions described below and terminated by the addition of 50 μL of 125 mM EDTA. Subsequently, 60 μL of the reaction mixture were transferred onto Immobilon-PVDF membrane (Millipore) previously soaked for 5 min with methanol, rinsed with water, then soaked for 5 min with 0.5% H3PO4 and mounted on vacuum manifold with disconnected vacuum source. After spotting all samples, vacuum was connected and each well rinsed with 200 μL 0.5% H3PO4. Membranes were removed and washed 4× on a shaker with 1.0% H3PO4, once with ethanol. Membranes were counted after drying at ambient temperature, mounting in Packard TopCount 96-well frame, and addition of 10 μL/well of Microscint™ (Packard). […]

T1 sequence (P22607 411-806 K650E): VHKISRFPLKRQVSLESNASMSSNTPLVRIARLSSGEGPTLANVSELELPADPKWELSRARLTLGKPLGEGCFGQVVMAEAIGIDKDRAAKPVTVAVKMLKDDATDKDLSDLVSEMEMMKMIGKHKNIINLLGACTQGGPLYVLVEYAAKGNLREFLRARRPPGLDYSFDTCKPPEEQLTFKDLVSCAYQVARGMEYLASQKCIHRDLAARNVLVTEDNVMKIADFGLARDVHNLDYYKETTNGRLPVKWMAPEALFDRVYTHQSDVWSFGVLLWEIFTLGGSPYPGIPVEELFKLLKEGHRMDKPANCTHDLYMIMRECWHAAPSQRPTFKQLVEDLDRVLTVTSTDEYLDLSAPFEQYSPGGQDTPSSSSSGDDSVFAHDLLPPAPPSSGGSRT
T2 sequence (P35968 20-1356): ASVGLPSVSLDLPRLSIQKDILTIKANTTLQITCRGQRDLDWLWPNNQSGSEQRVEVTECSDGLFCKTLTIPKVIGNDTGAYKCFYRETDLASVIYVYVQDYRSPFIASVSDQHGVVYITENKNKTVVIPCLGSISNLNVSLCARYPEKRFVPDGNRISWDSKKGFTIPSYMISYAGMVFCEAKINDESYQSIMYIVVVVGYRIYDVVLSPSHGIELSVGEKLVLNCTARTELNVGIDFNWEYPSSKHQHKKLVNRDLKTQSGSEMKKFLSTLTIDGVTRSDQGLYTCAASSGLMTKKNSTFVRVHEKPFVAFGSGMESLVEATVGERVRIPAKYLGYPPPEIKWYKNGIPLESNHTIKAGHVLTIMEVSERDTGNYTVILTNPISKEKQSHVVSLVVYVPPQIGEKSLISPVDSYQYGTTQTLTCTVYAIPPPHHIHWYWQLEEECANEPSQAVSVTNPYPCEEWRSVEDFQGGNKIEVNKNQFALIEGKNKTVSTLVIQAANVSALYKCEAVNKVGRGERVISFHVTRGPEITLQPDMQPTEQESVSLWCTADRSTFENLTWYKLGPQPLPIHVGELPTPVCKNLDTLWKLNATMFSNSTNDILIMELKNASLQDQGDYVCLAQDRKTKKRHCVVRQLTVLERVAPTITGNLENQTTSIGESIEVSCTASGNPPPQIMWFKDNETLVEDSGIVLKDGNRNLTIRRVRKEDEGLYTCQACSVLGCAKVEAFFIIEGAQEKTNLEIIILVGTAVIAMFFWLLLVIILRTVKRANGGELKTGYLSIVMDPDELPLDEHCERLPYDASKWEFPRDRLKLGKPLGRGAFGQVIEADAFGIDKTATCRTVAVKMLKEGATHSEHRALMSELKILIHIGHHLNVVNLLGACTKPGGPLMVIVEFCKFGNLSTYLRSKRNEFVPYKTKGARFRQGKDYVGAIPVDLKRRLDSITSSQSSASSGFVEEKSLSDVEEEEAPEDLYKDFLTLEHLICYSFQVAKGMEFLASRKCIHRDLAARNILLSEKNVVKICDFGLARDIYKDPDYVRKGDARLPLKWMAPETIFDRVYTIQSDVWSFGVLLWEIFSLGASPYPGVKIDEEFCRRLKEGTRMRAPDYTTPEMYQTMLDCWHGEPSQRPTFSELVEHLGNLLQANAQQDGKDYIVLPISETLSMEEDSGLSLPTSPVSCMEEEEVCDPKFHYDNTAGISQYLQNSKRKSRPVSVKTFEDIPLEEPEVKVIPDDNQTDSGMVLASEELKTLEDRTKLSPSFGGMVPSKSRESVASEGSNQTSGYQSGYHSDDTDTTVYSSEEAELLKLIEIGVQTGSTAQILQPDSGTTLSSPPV

A word on the inhibition: it is the change of the read-out against control, counted positive when it falls. For the compound `COc1ccc(OC)c(NC(=O)Nc2cc(Nc3ccc(N4CCN(C)CC4)cc3)ncn2)c1` [Example 12, 1-(2,5-Dimethoxy-phenyl)-3-{6-[4-(4-methyl-piperazin-1-yl)-phenyl-amino]-pyrimidin-4-yl}-urea], the inhibition at 10 µM on FGFR3 (K650E) was in the range of 27 to 100%; on KDR, 67 to 100%; at Tek, 12 to 100%.

Take `COc1ccc(OC)c(NC(=O)Nc2cc(Nc3cccc(N4CCN(C)CC4)c3)ncn2)c1` [Example 13, 1-(2,5-Dimethoxy-phenyl)-3-{6-[3-(4-methyl-piperazin-1-yl)-phenyl-amino]-pyrimidin-4-yl}-urea]: the values for the inhibition at 10 µM on FGFR3 (K650E), at KDR and on Tek were 27 to 100%, 67 to 100% and 12 to 100%, respectively.

As to `COc1cc(NC(=O)Nc2cc(Nc3ccc(N4CCN(C)CC4)cc3)ncn2)cc(OC)c1OC` [Example 14, 1-{6-[4-(4-Methyl-piperazin-1-yl)-phenylamino]-pyrimidin-4-yl}-3-(3,4,5-trimethoxy-phenyl)-urea], the inhibition at 10 µM on FGFR3 (K650E) lay within 27 to 100%; at KDR it was 67 to 100%; on Tek, 12 to 100%.

Take `COc1cc(NC(=O)Nc2cc(Nc3cccc(N4CCN(C)CC4)c3)ncn2)cc(OC)c1OC` [Example 15, 1-{6-[3-(4-Methyl-piperazin-1-yl)-phenylamino]-pyrimidin-4-yl}-3-(3,4,5-trimethoxy-phenyl)-urea]: the inhibition at 10 µM was in the range of 27 to 100% at FGFR3 (K650E), 67 to 100% on KDR and 12 to 100% at Tek.

Regarding `COc1ccc(NC(=O)Nc2cc(Nc3ccc(N4CCN(C)CC4)cc3)ncn2)c(OC)c1` [Example 16, 1-(2,4-Dimethoxy-phenyl)-3-{6-[4-(4-methyl-piperazin-1-yl)-phenyl-amino]-pyrimidin-4-yl}-urea], the inhibition at 10 µM was 27 to 100% at FGFR3 (K650E), 67 to 100% on KDR and 12 to 100% on Tek.

On to `COc1ccc(NC(=O)Nc2cc(Nc3cccc(N4CCN(C)CC4)c3)ncn2)c(OC)c1` [Example 17, 1-(2,4-Dimethoxy-phenyl)-3-{6-[3-(4-methyl-piperazin-1-yl)-phenyl-amino]-pyrimidin-4-yl}-urea], for which the inhibition at 10 µM lay in the range of 27 to 100% on FGFR3 (K650E), 67 to 100% at KDR and 12 to 100% on Tek.

On to `COc1cc(NC(=O)Nc2cc(Nc3ccc(N4CCN(C)CC4)cc3)ncn2)cc(OC)c1` [Example 18, 1-(3,5-Dimethoxy-phenyl)-3-{6-[4-(4-methyl-piperazin-1-yl)-phenyl-amino]-pyrimidin-4-yl}-urea], for which the inhibition at 10 µM on FGFR3 (K650E) lay in the range of 27 to 100%; at KDR, 67 to 100%; at Tek, 12 to 100%.

With `COc1cc(NC(=O)Nc2cc(Nc3cccc(N4CCN(C)CC4)c3)ncn2)cc(OC)c1` [Example 19, 1-(3,5-Dimethoxy-phenyl)-3-{6-[3-(4-methyl-piperazin-1-yl)-phenyl-amino]-pyrimidin-4-yl}-urea], the inhibition at 10 µM on FGFR3 (K650E) lay within 27 to 100%; at KDR it was 67 to 100%; at Tek it was 12 to 100%.

`CN1CCN(c2ccc(Nc3cc(NC(=O)Nc4cc(C(F)(F)F)cc(C(F)(F)F)c4)ncn3)cc2)CC1` [Example 20, 1-(3,5-Bis-trifluoromethyl-phenyl)-3-{6-[4-(4-methyl-piperazin-1-yl)-phenylamino]-pyrimidin-4-yl}-urea]: the inhibition at 10 µM is 27 to 100% at FGFR3 (K650E), 67 to 100% on KDR and 12 to 100% on Tek.

Turning to `CN1CCN(c2cccc(Nc3cc(NC(=O)Nc4cc(C(F)(F)F)cc(C(F)(F)F)c4)ncn3)c2)CC1` [Example 21, 1-(3,5-Bis-trifluoromethyl-phenyl)-3-{6-[3-(4-methyl-piperazin-1-yl)-phenylamino]-pyrimidin-4-yl}-urea], the inhibition at 10 µM fell in the range of 27 to 100% on FGFR3 (K650E), 67 to 100% on KDR and 12 to 100% at Tek.

In the case of `Cc1cc(C)cc(NC(=O)Nc2cc(Nc3ccc(N4CCN(C)CC4)cc3)ncn2)c1` [Example 22, 1-(3,5-Dimethyl-phenyl)-3-{6-[4-(4-methyl-piperazin-1-yl)-phenyl-amino]-pyrimidin-4-yl}-urea], the inhibition at 10 µM lay in the range of 27 to 100% on FGFR3 (K650E), 67 to 100% on KDR and 12 to 100% on Tek.

Consider `Cc1cc(C)cc(NC(=O)Nc2cc(Nc3cccc(N4CCN(C)CC4)c3)ncn2)c1` [Example 23, 1-(3,5-Dimethyl-Phenyl)-3-{6-[3-(4-methyl-piperazin-1-yl)-phenyl-amino]-pyrimidin-4-yl}-urea], for which the inhibition at 10 µM at FGFR3 (K650E) lay within 27 to 100%; on KDR, 67 to 100%; on Tek it was 12 to 100%.

Regarding `COc1ccc(NC(=O)Nc2cc(Nc3ccc(N4CCN(C)CC4)cc3)ncn2)cc1Cl` [Example 24, 1-(3-Chloro-4-methoxy-phenyl)-3-{6-[4-(4-methyl-piperazin-1-yl)-phenyl-amino]-pyrimidin-4-yl}-urea], the inhibition at 10 µM at FGFR3 (K650E) lay in the range of 27 to 100%; at KDR, 67 to 100%; at Tek, 12 to 100%.

For the compound `COc1ccc(NC(=O)Nc2cc(Nc3cccc(N4CCN(C)CC4)c3)ncn2)cc1Cl` [Example 25, 1-(3-Chloro-4-methoxy-phenyl)-3-{6-[3-(4-methyl-piperazin-1-yl)-phenyl-amino]-pyrimidin-4-yl}-urea], the inhibition at 10 µM at FGFR3 (K650E) is 27 to 100%; at KDR it was 67 to 100%; at Tek, 12 to 100%.

For `COc1ccc(C)c(NC(=O)Nc2cc(Nc3ccc(N4CCN(C)CC4)cc3)ncn2)c1` [Example 26, 1-(5-Methoxy-2-methyl-phenyl)-3-{6-[4-(4-methyl-piperazin-1-yl)-phenyl-amino]-pyrimidin-4-yl}-urea], the inhibition at 10 µM was in the range of 27 to 100% at FGFR3 (K650E), 67 to 100% at KDR and 12 to 100% at Tek.
